How the values were obtained:
Format in all cases: cell-based, human
[1] = tested on: pS2448mTOR, pS473Akt, pY/pT-ERK2 in small-cell lung carcinoma cells; assay: Activated (phosphorylated) mTOR, Akt and ERK2 levels (immunoprecipitation, Western blotting); conditions: 0.1-5 nM; 4 days
Method: (§1) Cells were treated with vehicle and 0.1-5 nM C0105 for 4 days. Cells were washed, solubilized and the resultant cell lysate was immunoprecipitated with anti-mTOR, -Akt or -ERK2. The levels of pS^2448mTOR, pS^473Akt, pY/pTERK2 in the respective anti-mTOR, -Akt, and -ERK2 immunoprecipitates were determined by Western blotting. […] The density of protein bands was measured by densitometric scanning. […] N=4. *p<0.01 compared to vehicle (open bars). […]
(§2) The cell lysates were diluted 5-fold with immunoprecipitation buffer and immunoprecipitated with anti-FLNA, -Akt, -mTOR and -ERK2 as described previously [Talbot et al., J Clin Inv 122(4):1-23 (2012); Wang et al., J Neurosci 32(29):9773-9784 (2012)]. The levels of FLNA linkages, activated phosphorylated Akt (pS^473 and pT^308), phosphorylated mTOR (pS^2448) and phosphorylated ERK2 (pY/pT) were determined in anti-FLNA, -Akt, -mTOR and -ERK2 immunoprecipitates by Western blotting with appropriate antibodies directed against PTEN, PP2A, K-RAS, ras-GAP (FLNA linkages), pS^473Akt, pT^308Akt, pS^2448mTOR and pY/pT ERK2 (activation of Akt, mTOR and ERK2).

[2] = tested on: pS2448mTOR, pS473Akt, pY/pT-ERK2 in primary lung fibroblast cells; assay: as above; conditions: 0.1-5 nM; 4 days
Method: as §1, §2

[3] = tested on: MiaPaCa2 cells; assay: Blocking of compound effects with FLNA decoy pentapeptide VAKGL or control peptide VAAGL; conditions: 4 days
Method: FIGS. 32A-32D illustrate Western blots of pS^2152FLNA, Ras-GAP, PP2A-Aα/β, PTEN and FLNA in FIG. 32A and Ki67, PCNA and actin in FIG. 32C after four days of incubation (contact) of MiaPaCa2 cells in the presence of medium alone, or medium containing 1 nM Compound C0105 with and without the presence of 10 μM peptide VAAGL (SEQ ID NO: 2) or peptide VAKGL (SEQ ID NO: 1). Densitometric quantification of the Western blot results are shown in the graphs of FIG. 32B for the amounts of pS^2152FLNA, Ras-GAP, PP2A-Aα/β and PTEN in anti-FLNA immunoprecipitates and the amounts of Ki76 and PCNA (normalized by actin) in FIG. 32D. N=4, *p<0.01.
To confirm that Compound C0105 effects are mediated by binding to FLNA pentapeptide VAKGL (SEQ ID NO: 1), cancer cells were incubated with vehicle or 1 nM Compound C0105 together with 10 μM of decoy pentapeptide (VAKGL) or control peptide, VAAGL (K-A decoy peptide; SEQ ID NO: 2) for 4 days as described previously.
Cells were harvested by centrifugation and solubilized, and lysates were immunoprecipitated with anti-FLNA. Levels of pS^2152FLNA, PTEN, PP2A-Aα, PP2A-Aβ and Ras-GAP in the anti-FLNA immunoprecipitates were determined by Western blotting.
A separate series of studies was undertaken to determine whether Compound C0105's reduction in proliferation markers is also mediated by Compound C0105 binding to the pentapeptide region of FLNA. As above, cancer cells were incubated for 4 days with vehicle or 1 nM Compound C0105 together with 10 μM of decoy pentapeptide (VAKGL; SEQ ID NO: 1) or control peptide, VAAGL (SEQ ID NO: 2).
Cells were harvested by centrifugation and the resultant cell pellets were washed and sonicated in ice-cold immunoprecipitation buffer. Protein concentrations were measured by the Bradford method. […] Fifty μl of solubilized cell lysates were separated using SDS-PAGE, the protein bands electrophoretically transferred to nitrocellulose membranes and the level of cell proliferation was determined by Western blotting using the levels of Ki67 and PCNA as described previously.

[4] = tested on: pS2448mTOR, pS473Akt, pY/pT-ERK2 in glioblastoma cells; assay: Activated (phosphorylated) mTOR, Akt and ERK2 levels (immunoprecipitation, Western blotting); conditions: 0.1-5 nM; 4 days
Method: FIG. 10A through FIG. 10C illustrate the effect of contact with Compound C0105 on the levels of activated (phosphorylated) mTOR (pS^2448mTOR), Akt (pS^473Akt) and ERK2 (pY/pT-ERK2) in glioblastoma cells. Cells were treated with vehicle and 0.1-5 nM C0105 for 4 days. Cells were washed, solubilized and the resultant cell lysate was immunoprecipitated with anti-mTOR, -Akt or -ERK2. The levels of pS^2448mTOR, pS^473Akt, pY/pTERK2 in the respective anti-mTOR, -Akt, and -ERK2 immunoprecipitates were determined by Western blotting. The density of protein bands was measured by densitometric scanning. […] N=4. *p<0.01 compared to vehicle (open bars). […]
as §2

CN1CCC2(CC1)NCC(=O)N2Cc1ccccc1 [Compound C0105]
mTOR, Akt and ERK activation (phosphorylated mTOR, Akt and ERK) [1]: robustly reduces mTOR, Akt and ERK activation
mTOR, Akt and ERK activation (phosphorylated mTOR, Akt and ERK) [2]: little effect on mTOR, Akt and ERK activation
Effect on pS2152FLNA and FLNA associations when co-incubated with control peptide VAAGL ([3]; 1 nM compound + 10 μM VAAGL (SEQ ID NO: 2)): did not disrupt Compound C0105 effects
Effect on pS2152FLNA and FLNA associations when co-incubated with VAKGL decoy pentapeptide ([3]; 1 nM compound + 10 μM VAKGL (SEQ ID NO: 1)): lost its effect on pS^2152FLNA hyperphosphorylation and on FLNA associations with ras-GAP, PTEN and PP2A
Reduction in cell proliferation (Ki67, PCNA) when co-incubated with VAKGL decoy pentapeptide ([3]; 1 nM compound + 10 μM VAKGL): disrupted Compound C0105's reduction in cell proliferation
mTOR, Akt and ERK activation (phosphorylated mTOR, Akt and ERK) [4]: robustly reduces mTOR, Akt and ERK activation

Source: patent publication US10363239B2, “Method for inhibiting growth of cancer cells” (Pain Therapeutics, Inc., priority 2013, dated 2019)
